The record followed here is patent publication US9309242B2, “Substituted pyrido[2,3-b]pyrazines as FGFR kinase inhibitors” (priority 2011, dated 2016).

For assay [1], the system named is Ba/F3-FGFR3-transfected cells. The experiment in a line: Ba/F3-FGFR3 (plus IL3) cellular proliferation assay, counterscreen with 10 ng/ml murine IL3. In kind it is cell-based. The conditions noted are these: plus IL3 (10 ng/ml murine IL3, counterscreen); read-out: BAF3-FGFR3 (PLUS IL3) pIC50 (converted). The method in brief:
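FGFR3-Ba/F3, 20000 cells/well, RPMI-1640 + 10% FBS, no phenol red; cpd in DMSO; 24 h, 37° C/5% CO2. Alamar Blue 4 h, RFU ex540/em590. Counterscreen: + murine IL3 10 ng/ml.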
In general terms: Counterscreens check selectivity or assay interference.

In assay [2] the test system is Ba/F3-KDR-transfected cells. The experiment in a line: Ba/F3-KDR (plus IL3) cellular proliferation assay, counterscreen with 10 ng/ml murine IL3. In kind it is cell-based. Conditions: plus IL3 (10 ng/ml murine IL3, counterscreen); read-out: BAF3-KDR (PLUS IL3) pIC50 (converted). The method in brief:
(§1)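 Read-out: resazurin-based Alamar Blue fluorescence (ex. 540, em. 590 nm) after 4 h. Before that, cells were incubated with compound for 24 h at 37° C. The counterscreen ran identically but with IL3 supplemented.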

The target in assay [3] is T1, Ba/F3-FGFR1-transfected cells (Homo sapiens, UniProt P11362).
T1 construct: BAF3-FGFR1 (MIN IL3) pIC50; other: minus IL3
T1 sequence (P11362 whole entry, change not shown): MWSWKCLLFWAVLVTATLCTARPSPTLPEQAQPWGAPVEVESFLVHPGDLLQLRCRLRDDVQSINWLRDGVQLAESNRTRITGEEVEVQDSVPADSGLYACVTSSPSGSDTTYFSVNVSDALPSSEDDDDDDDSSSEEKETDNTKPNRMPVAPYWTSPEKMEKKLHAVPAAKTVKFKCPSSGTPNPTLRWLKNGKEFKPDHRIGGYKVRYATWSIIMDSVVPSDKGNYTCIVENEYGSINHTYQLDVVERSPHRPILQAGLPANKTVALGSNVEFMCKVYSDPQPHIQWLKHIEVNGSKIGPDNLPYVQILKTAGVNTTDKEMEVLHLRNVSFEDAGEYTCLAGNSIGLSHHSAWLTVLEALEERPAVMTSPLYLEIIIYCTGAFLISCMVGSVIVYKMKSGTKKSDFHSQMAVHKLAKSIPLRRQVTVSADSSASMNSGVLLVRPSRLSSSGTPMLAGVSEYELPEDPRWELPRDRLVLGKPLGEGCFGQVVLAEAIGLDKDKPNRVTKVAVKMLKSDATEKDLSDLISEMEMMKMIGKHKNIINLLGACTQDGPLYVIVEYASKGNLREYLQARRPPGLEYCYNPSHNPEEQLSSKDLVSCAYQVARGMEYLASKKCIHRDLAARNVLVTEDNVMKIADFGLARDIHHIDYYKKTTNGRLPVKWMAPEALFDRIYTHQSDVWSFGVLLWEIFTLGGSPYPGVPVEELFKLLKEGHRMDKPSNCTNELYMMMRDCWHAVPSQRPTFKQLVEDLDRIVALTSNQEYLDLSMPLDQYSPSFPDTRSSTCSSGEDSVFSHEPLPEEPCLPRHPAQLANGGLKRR
The experiment in a line: Ba/F3-FGFR1 (minus IL3) cellular proliferation assay, Alamar Blue. In kind it is cell-based. The method in brief:
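Ba/F3-FGFR1 cells, 20000/well, RPMI-1640 + 10% FBS + 2 mM L-Gln; compound in DMSO; 24 h, 37 °C, 5% CO2; Alamar Blue 4 h; RFU ex 540/em 590.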
Background: Alamar Blue is a resazurin reagent that responds to reducing activity.

Assay [4] deals with Ba/F3-FGFR1-transfected cells. The experiment in a line: Ba/F3-FGFR1 (plus IL3) cellular proliferation assay, counterscreen with 10 ng/ml murine IL3. The conditions noted are these: plus IL3 (10 ng/ml murine IL3, counterscreen); read-out: BAF3-FGFR1 (PLUS IL3) pIC50 (converted). In kind it is cell-based. The method in brief: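 Proliferation read-out: resazurin-based Alamar Blue fluorescence (540/590 nm) after 4 h, following 24 h compound treatment of 20000 Ba/F3-FGFR1 cells per well in 10% FBS RPMI at 37° C. IL3 counterscreen used the same protocol plus 10 ng/ml murine IL3.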

A further assay concerns the target FGFR4 (h) (Homo sapiens, UniProt P22455). The experiment in a line: FGFR4 (enzymatic assay), TR-FRET. In kind it is biochemical. Conditions: FGFR 4 pIC50, enzymatic assay.
Another assay addresses FGFR2 (h) (Homo sapiens, UniProt P21802). The experiment in a line: FGFR2 (enzymatic assay), TR-FRET. In kind it is biochemical. The conditions noted are these: enzymatic assay; read-out: FGFR 2 pIC50 (converted). The method in brief:
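hFGFR2 150 ng/ml; Btn-Flt3 500 nM; ATP 0.4 μM; 50 mM HEPES pH 7.5, 6 mM MnCl2, 1 mM DTT, 0.1 mM Na3VO4, 0.01% Triton-X-100; 1% DMSO final.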

Assay [5] has as its target T2, Ba/F3-KDR-transfected cells (Homo sapiens, UniProt P35968).
T2 construct: BAF3-KDR (MIN IL3) pIC50; other: minus IL3
The experiment in a line: Ba/F3-KDR (minus IL3) cellular proliferation assay, Alamar Blue. In kind it is cell-based. Summed up:
as §1

The target in assay [6] is Ba/F3-FGFR4-transfected cells (Homo sapiens, UniProt P22455). The experiment in a line: Ba/F3-FGFR4 cellular proliferation assay, Alamar Blue. In kind it is cell-based. Summed up:
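Fluorescence read-out (ex. 540 nm, em. 590 nm) of resazurin-based Alamar Blue after 4 h, following 24 h compound exposure of Ba/F3-FGFR4-transfected cells (20000/well) at 37° C, 5% CO2.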

For a further assay, the target named is FGFR1 (h) (Homo sapiens, UniProt P11362). The experiment in a line: FGFR1 (enzymatic assay), TR-FRET. In kind it is biochemical. Conditions: read-out: FGFR 1 pIC50 (converted). On the technique in general: In TR-FRET formats the signal depends on donor and acceptor labels being close together.
FGFR1 (h), sequence (P11362 22-822): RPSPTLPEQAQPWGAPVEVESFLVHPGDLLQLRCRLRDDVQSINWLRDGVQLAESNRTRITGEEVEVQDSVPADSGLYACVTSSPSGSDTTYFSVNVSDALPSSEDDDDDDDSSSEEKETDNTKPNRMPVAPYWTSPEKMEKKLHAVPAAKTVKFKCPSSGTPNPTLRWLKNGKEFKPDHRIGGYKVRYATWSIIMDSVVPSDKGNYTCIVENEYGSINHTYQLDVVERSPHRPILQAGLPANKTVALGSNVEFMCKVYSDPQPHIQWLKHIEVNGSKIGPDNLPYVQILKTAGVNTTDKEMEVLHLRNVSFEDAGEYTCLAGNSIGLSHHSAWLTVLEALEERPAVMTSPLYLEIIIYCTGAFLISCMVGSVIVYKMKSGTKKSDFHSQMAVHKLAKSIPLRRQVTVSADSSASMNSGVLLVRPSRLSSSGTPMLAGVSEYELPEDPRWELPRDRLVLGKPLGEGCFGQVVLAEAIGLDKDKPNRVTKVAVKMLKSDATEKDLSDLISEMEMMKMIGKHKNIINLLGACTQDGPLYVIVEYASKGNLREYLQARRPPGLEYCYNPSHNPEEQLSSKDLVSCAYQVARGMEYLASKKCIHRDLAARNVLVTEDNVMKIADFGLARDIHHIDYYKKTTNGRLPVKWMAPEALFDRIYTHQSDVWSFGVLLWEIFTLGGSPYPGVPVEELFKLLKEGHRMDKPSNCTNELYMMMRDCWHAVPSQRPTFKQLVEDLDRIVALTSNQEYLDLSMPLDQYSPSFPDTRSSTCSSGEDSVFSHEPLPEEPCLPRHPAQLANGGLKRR

FGFR2 (h), sequence (P21802 22-821): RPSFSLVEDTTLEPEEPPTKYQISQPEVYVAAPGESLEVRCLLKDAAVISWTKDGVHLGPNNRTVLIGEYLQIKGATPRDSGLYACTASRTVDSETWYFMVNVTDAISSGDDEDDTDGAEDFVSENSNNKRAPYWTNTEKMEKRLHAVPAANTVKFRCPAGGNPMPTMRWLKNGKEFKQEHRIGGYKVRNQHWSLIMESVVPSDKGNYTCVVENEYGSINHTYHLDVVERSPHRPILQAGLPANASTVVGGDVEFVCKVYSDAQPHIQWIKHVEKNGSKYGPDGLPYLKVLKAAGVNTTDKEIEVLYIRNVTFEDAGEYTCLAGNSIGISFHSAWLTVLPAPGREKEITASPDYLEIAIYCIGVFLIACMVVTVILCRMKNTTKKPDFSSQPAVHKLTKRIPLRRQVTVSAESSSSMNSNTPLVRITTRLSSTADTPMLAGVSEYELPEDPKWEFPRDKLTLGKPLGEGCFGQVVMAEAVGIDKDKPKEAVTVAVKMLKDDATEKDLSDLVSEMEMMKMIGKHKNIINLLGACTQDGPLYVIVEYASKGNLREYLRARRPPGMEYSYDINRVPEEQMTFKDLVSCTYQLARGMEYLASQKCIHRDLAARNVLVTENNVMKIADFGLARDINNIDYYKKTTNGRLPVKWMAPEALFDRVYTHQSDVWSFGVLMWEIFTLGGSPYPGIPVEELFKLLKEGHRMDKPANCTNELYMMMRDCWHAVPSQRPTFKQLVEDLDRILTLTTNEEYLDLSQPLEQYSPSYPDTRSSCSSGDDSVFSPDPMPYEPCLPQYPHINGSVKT
Ba/F3-FGFR4-transfected cells, sequence (P22455 whole entry, change not shown): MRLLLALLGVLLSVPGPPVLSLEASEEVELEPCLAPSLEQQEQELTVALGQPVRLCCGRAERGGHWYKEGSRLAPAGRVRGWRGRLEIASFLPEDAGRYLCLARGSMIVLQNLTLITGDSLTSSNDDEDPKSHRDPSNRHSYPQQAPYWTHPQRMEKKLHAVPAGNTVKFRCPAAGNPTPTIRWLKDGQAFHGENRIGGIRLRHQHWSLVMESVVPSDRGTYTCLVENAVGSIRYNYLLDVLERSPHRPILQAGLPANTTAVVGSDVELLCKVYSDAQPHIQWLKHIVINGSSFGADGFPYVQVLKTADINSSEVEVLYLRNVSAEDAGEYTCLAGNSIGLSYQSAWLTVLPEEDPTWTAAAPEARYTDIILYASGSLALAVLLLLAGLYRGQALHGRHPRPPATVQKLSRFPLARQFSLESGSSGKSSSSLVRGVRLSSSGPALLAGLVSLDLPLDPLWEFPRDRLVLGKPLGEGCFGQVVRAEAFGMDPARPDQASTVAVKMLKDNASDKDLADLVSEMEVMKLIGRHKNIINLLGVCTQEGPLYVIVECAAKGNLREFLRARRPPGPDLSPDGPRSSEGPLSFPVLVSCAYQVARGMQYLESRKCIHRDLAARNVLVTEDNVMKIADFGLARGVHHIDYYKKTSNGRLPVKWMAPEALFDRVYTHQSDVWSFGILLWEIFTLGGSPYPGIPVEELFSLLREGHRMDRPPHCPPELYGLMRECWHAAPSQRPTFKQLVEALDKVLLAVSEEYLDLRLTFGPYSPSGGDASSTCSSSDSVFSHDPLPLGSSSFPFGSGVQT
FGFR4 (h), sequence (P22455 22-802): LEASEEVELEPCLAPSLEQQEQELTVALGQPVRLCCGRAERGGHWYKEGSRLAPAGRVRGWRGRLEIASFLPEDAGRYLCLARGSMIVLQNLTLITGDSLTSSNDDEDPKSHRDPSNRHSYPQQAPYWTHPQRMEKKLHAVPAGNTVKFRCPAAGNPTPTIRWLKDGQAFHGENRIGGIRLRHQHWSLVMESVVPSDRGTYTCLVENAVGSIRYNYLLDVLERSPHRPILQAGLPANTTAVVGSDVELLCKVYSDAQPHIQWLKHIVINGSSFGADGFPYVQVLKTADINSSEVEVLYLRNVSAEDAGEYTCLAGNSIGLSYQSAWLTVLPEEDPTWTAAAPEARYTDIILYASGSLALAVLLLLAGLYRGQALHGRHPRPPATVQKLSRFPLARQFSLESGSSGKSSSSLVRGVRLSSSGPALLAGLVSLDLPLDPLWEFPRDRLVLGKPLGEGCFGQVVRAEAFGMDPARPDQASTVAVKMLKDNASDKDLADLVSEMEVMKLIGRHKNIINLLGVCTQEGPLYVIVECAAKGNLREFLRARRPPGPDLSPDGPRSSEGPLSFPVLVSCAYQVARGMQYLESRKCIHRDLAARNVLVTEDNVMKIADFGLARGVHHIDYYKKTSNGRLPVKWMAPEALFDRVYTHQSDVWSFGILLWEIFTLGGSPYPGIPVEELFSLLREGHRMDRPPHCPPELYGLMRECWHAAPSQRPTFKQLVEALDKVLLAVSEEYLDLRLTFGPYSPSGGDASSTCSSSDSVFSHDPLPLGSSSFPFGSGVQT

In the case of `COc1ccc(Cl)c(N(CC2CCC(=O)N2)c2ccc3ncc(-c4cnn(C)c4)nc3n2)c1Cl` (stereo not drawn) [Compound 93], the IC50 in assay [1] was over 10000 nM; in assay [2], over 10000 nM; in assay [4] it was over 10000 nM; against FGFR4 (h), 794 nM; on FGFR2 (h), 60.3 nM; on FGFR1 (h) it was 66.1 nM. Besides, in assay [3], the “BAF3-FGFR1 (MIN IL3) pIC50” value is 5.59. Besides, in [5], the “BAF3-KDR (MIN IL3) pIC50” value is under 5. In addition, the “BAF3-FGFR4 pIC50” value in [6] turned out to be 5.02.

On to `COc1cc(OC)c(F)c(N(CC(=O)c2cnn(C)c2)c2ccc3ncc(-c4cnn(C)c4)nc3n2)c1` [Compound 225], for which the IC50 in assay [1] was over 10000 nM; in [2] it was over 10000 nM; in assay [4], over 10000 nM; at FGFR4 (h) it was 36.3 nM; at FGFR2 (h) it was about 7.08 nM; at FGFR1 (h), 6.61 nM. Also, the “BAF3-FGFR1 (MIN IL3) pIC50” value in assay [3] is 6.41. In addition, the “BAF3-KDR (MIN IL3) pIC50” value in assay [5] came to 5.17. For the same compound, in assay [6], the “BAF3-FGFR4 pIC50” value came out at 5.96.

As for `COc1cc(OC)c(F)c(N(Cc2cc(C)on2)c2ccc3ncc(-c4cnn(C)c4)nc3n2)c1` [Compound 180], the IC50 in assay [1] is over 10000 nM; in assay [2] it was over 10000 nM; in assay [4] it was over 10000 nM; against FGFR4 (h), 1.66 nM; on FGFR2 (h), 1.62 nM; on FGFR1 (h), 1.1 nM. The “BAF3-FGFR1 (MIN IL3) pIC50” value in [3] is given as 7.43. Also, the “BAF3-KDR (MIN IL3) pIC50” value in assay [5] was determined as 5.58. The “BAF3-FGFR4 pIC50” value in [6] was 7.10.

With `COc1cc(/N=c2\ccc3ncc(-c4cnn(C)c4)nc3n2Cc2cn[nH]c2)c(F)c(OC)c1` [Compound 155], the IC50 is over 10000 nM in assay [1]; over 10000 nM in assay [2]; over 10000 nM in [4]; 0.324 nM on FGFR4 (h); 1.2 nM at FGFR2 (h); 0.55 nM on FGFR1 (h). For the same compound, the “BAF3-FGFR1 (MIN IL3) pIC50” value in assay [3] is on record as 8.13. For the same compound, the “BAF3-KDR (MIN IL3) pIC50” value in assay [5] is listed as 6.88. The “BAF3-FGFR4 pIC50” value in assay [6] was 8.09.

Turning to `COc1cc(OC)c(F)c(N(CCNC2COC2)c2ccc3ncc(-c4cnn(C)c4)nc3n2)c1` [Compound 221], the IC50 in assay [1] is over 10000 nM; in [2] it was over 10000 nM; in assay [4], over 10000 nM; on FGFR4 (h), 6.61 nM; on FGFR2 (h) it was 3.09 nM; on FGFR1 (h), 1.51 nM. In assay [3], the “BAF3-FGFR1 (MIN IL3) pIC50” value is given as 7.53. The “BAF3-KDR (MIN IL3) pIC50” value in assay [5] worked out at 6.11. Further, the “BAF3-FGFR4 pIC50” value in assay [6] came out at 6.98.

Take `COc1cc(/N=c2\ccc3ncc(-c4cnn(C)c4)nc3n2Cc2c(C)noc2C)c(F)c(OC)c1` [Compound 179]: the IC50 is over 3020 nM in assay [1]; over 3020 nM in assay [2]; over 3020 nM in assay [4]; 3.47 nM at FGFR4 (h); 2.57 nM on FGFR2 (h); 2.95 nM at FGFR1 (h). The “BAF3-FGFR1 (MIN IL3) pIC50” value in assay [3] was under 5.52. In addition, the “BAF3-KDR (MIN IL3) pIC50” value in assay [5] was under 5.52. Moreover, in [6], the “BAF3-FGFR4 pIC50” value is under 5.52.

As to `COc1cc(OC)c(F)c(N(Cc2nc(CO)c[nH]2)c2ccc3ncc(-c4cnn(C)c4)nc3n2)c1` [Compound 232], the IC50 in assay [1] is over 10000 nM; in assay [2] it was over 10000 nM; in [4] it was over 10000 nM; on FGFR4 (h), 1.86 nM; at FGFR2 (h) it was about 2.75 nM; on FGFR1 (h), 0.813 nM. The “BAF3-FGFR1 (MIN IL3) pIC50” value in assay [3] worked out at 7.45. In addition, the “BAF3-KDR (MIN IL3) pIC50” value in assay [5] was determined as 5.83. For the same compound, the “BAF3-FGFR4 pIC50” value in [6] is 6.96.

In the case of `COc1cc(OC)c(F)c(N(Cc2ncco2)c2ccc3ncc(-c4cnn(C)c4)nc3n2)c1` [Compound 177], the IC50 was over 10000 nM in assay [1]; over 10000 nM in assay [2]; over 10000 nM in assay [4]; 2.45 nM against FGFR4 (h); 1.62 nM on FGFR2 (h); 1.78 nM at FGFR1 (h). Besides, the “BAF3-FGFR1 (MIN IL3) pIC50” value in assay [3] turned out to be 7.22. Further, in [5], the “BAF3-KDR (MIN IL3) pIC50” value turned out to be 5.67. Also, in [6], the “BAF3-FGFR4 pIC50” value turned out to be 6.79.
